{
  "source": "patent US8952024B2",
  "about": "“Herbicidal pyrimidone derivatives” (E I du Pont de Nemours and Company, priority 2009, dated 2015)",
  "assay_type_in_all_cases": "in vivo",
  "key": {"[1]": {"system": "winter barley (Hordeum vulgare)", "assay": "Test B postemergence plant response", "summary_of_the_method": "(§1)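 Plants at the 1- to 4-leaf stage (2 to 18 cm tall), grown in pots of peat moss/vermiculite medium with wetting agent and starter nutrients, received postemergence applications of test chemicals. After 13 to 15 days in a greenhouse, injury was rated visually against untreated controls on a 0 (no effect) to 100 (complete control) scale.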"}, "[2]": {"system": "canarygrass (Phalaris minor)", "assay": "Test B postemergence plant response", "summary_of_the_method": "as §1"}, "[3]": {"system": "chickweed (Stellaria media)", "assay": "Test B postemergence plant response", "summary_of_the_method": "as §1"}, "[4]": {"system": "windgrass (Apera spica-venti)", "assay": "Test B postemergence plant response", "summary_of_the_method": "as §1"}, "[5]": {"system": "velvetleaf (Abutilon theophrasti)", "assay": "Test B pre-/postemergence plant response", "summary_of_the_method": "(§2)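 Test compounds, formulated in a non-phytotoxic solvent mixture with surfactant, are applied to the soil surface (loam and sand blend) right after seeding, or sprayed over plants at the 1- to 4-leaf stage grown in peat moss/vermiculite medium. After 13 to 15 days under glasshouse conditions, each species is scored visually from 0 (no effect) to 100 (complete control) against controls.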"}, "[6]": {"system": "goosegrass (Eleusine indica)", "assay": "Test B pre-/postemergence plant response", "summary_of_the_method": "as §2"}, "[7]": {"system": "lambsquarters (Chenopodium album)", "assay": "Test B pre-/postemergence plant response", "summary_of_the_method": "as §2"}, "corn (Zea mays)": {"system": "corn (Zea mays)", "assay": "Test B pre-/postemergence plant response", "summary_of_the_method": "as §2"}, "[8]": {"system": "giant foxtail (Setaria faberii)", "assay": "Test B pre-/postemergence plant response", "summary_of_the_method": "as §2"}, "[9]": {"system": "johnsongrass (Sorghum halepense)", "assay": "Test B pre-/postemergence plant response", "summary_of_the_method": "as §2"}, "soybean (Glycine max)": {"system": "soybean (Glycine max)", "assay": "Test B pre-/postemergence plant response", "summary_of_the_method": "as §2"}, "[10]": {"system": "green foxtail (Setaria viridis)", "assay": "Test B pre-/postemergence plant response", "summary_of_the_method": "as §2"}, "[11]": {"system": "pigweed (Amaranthus retroflexus)", "assay": "Test B pre-/postemergence plant response", "summary_of_the_method": "as §2"}, "[12]": {"system": "yellow nutsedge (Cyperus esculentus)", "assay": "Test B pre-/postemergence plant response", "summary_of_the_method": "as §2"}, "[13]": {"conditions": "31 g ai/ha, postemergence, scale 0 to 100, 0 is no effect, 100 is complete control"}, "[14]": {"conditions": "62 g ai/ha, postemergence, 0 is no effect, 100 is complete control, 13 to 15 days"}, "[15]": {"conditions": "Postemergence, 125 g ai/ha, visual rating after 13 to 15 days, scale 0 (no effect) to 100 (complete control)"}, "[16]": {"conditions": "Postemergence, 250 g ai/ha, scale 0 to 100 (0 no effect, 100 complete control)"}, "[17]": {"conditions": "Preemergence, 31 g ai/ha, scale 0 to 100 (0 no effect, 100 complete control)"}, "[18]": {"conditions": "Preemergence, 62 g ai/ha, scale 0 to 100 (0 no effect, 100 complete control)"}, "[19]": {"conditions": "Preemergence, 125 g ai/ha, scale 0 to 100, 0 no effect, 100 complete control"}, "[20]": {"conditions": "250 g ai/ha, Preemergence, 0 to 100 scale"}},
  "data": [
    {"compound": "CCCCc1ncc(C(=O)C2=C(O)CCCC2=O)c(=O)n1-c1ccc(C)cc1", "note": "[Compound 67]", "values": [
      {"measurement": "Plant response rating, Barley", "setting": "[1]; [13]", "result": 0},
      {"measurement": "Barley plant response rating (0 to 100 scale)", "setting": "[1]; [14]", "result": 5},
      {"measurement": "Plant response rating, Barley", "setting": "[1]; [15]", "result": 20},
      {"measurement": "Plant response rating, Barley", "setting": "[1]; [16]", "result": 30},
      {"measurement": "Plant response rating, Canarygrass", "setting": "[2]; [13]", "result": 0},
      {"measurement": "Canarygrass plant response rating (0 to 100 scale)", "setting": "[2]; [14]", "result": 0},
      {"measurement": "Plant response rating, Canarygrass", "setting": "[2]; [15]", "result": 0},
      {"measurement": "Plant response rating, Canarygrass", "setting": "[2]; [16]", "result": 5},
      {"measurement": "Plant response rating, Chickweed", "setting": "[3]; [13]", "result": 90},
      {"measurement": "Chickweed plant response rating (0 to 100 scale)", "setting": "[3]; [14]", "result": 95},
      {"measurement": "Plant response rating, Chickweed", "setting": "[3]; [15]", "result": 95},
      {"measurement": "Plant response rating, Chickweed", "setting": "[3]; [16]", "result": 100},
      {"measurement": "Plant response rating, Windgrass", "setting": "[4]; [13]", "result": 0},
      {"measurement": "Windgrass plant response rating (0 to 100 scale)", "setting": "[4]; [14]", "result": 0},
      {"measurement": "Plant response rating, Windgrass", "setting": "[4]; [15]", "result": 5},
      {"measurement": "Plant response rating, Windgrass", "setting": "[4]; [16]", "result": 5},
      {"measurement": "Plant response rating, Velvetleaf", "setting": "[5]; [13]", "result": 90},
      {"measurement": "Velvetleaf plant response rating (0 to 100 scale)", "setting": "[5]; [14]", "result": 95},
      {"measurement": "Plant response rating, Velvetleaf", "setting": "[5]; [15]", "result": 98},
      {"measurement": "Plant response rating, Velvetleaf", "setting": "[5]; [16]", "result": 100},
      {"measurement": "Plant response rating, Velvetleaf", "setting": "[5]; [17]", "result": 75},
      {"measurement": "Plant response rating, Velvetleaf", "setting": "[5]; [18]", "result": 85},
      {"measurement": "Plant response rating, Velvetleaf", "setting": "[5]; [19]", "result": 90},
      {"measurement": "Plant response rating, Goosegrass", "setting": "[6]; [13]", "result": 55},
      {"measurement": "Goosegrass plant response rating (0 to 100 scale)", "setting": "[6]; [14]", "result": 55},
      {"measurement": "Plant response rating, Goosegrass", "setting": "[6]; [20]", "result": 98},
      {"measurement": "Plant response rating, Goosegrass", "setting": "[6]; [15]", "result": 65},
      {"measurement": "Plant response rating, Goosegrass", "setting": "[6]; [16]", "result": 80},
      {"measurement": "Plant response rating, Goosegrass", "setting": "[6]; [17]", "result": 85},
      {"measurement": "Plant response rating, Goosegrass", "setting": "[6]; [18]", "result": 85},
      {"measurement": "Plant response rating, Goosegrass", "setting": "[6]; [19]", "result": 90},
      {"measurement": "Plant response rating, Lambsquarters", "setting": "[7]; [13]", "result": 80},
      {"measurement": "Lambsquarters plant response rating (0 to 100 scale)", "setting": "[7]; [14]", "result": 95},
      {"measurement": "Plant response rating, Lambsquarters", "setting": "[7]; [20]", "result": 98},
      {"measurement": "Plant response rating, Lambsquarters", "setting": "[7]; [15]", "result": 98},
      {"measurement": "Plant response rating, Lambsquarters", "setting": "[7]; [16]", "result": 100},
      {"measurement": "Plant response rating, Lambsquarters", "setting": "[7]; [17]", "result": 98},
      {"measurement": "Plant response rating, Lambsquarters", "setting": "[7]; [18]", "result": 98},
      {"measurement": "Plant response rating, Lambsquarters", "setting": "[7]; [19]", "result": 98},
      {"measurement": "Plant response rating, Corn", "setting": "corn (Zea mays); [13]", "result": 5},
      {"measurement": "Corn plant response rating (0 to 100 scale)", "setting": "corn (Zea mays); [14]", "result": 10},
      {"measurement": "Plant response rating, Corn", "setting": "corn (Zea mays); [20]", "result": 0},
      {"measurement": "Plant response rating, Corn", "setting": "corn (Zea mays); [15]", "result": 65},
      {"measurement": "Plant response rating, Corn", "setting": "corn (Zea mays); [16]", "result": 75},
      {"measurement": "Plant response rating, Corn", "setting": "corn (Zea mays); [17]", "result": 0},
      {"measurement": "Plant response rating, Corn", "setting": "corn (Zea mays); [18]", "result": 0},
      {"measurement": "Plant response rating, Corn", "setting": "corn (Zea mays); [19]", "result": 0},
      {"measurement": "Plant response rating, Foxtail, Giant", "setting": "[8]; [13]", "result": 75},
      {"measurement": "Foxtail, Giant plant response rating (0 to 100 scale)", "setting": "[8]; [14]", "result": 80},
      {"measurement": "Plant response rating, Foxtail, Giant", "setting": "[8]; [20]", "result": 65},
      {"measurement": "Plant response rating, Foxtail, Giant", "setting": "[8]; [15]", "result": 85},
      {"measurement": "Plant response rating, Foxtail, Giant", "setting": "[8]; [16]", "result": 90},
      {"measurement": "Plant response rating, Foxtail, Giant", "setting": "[8]; [17]", "result": 0},
      {"measurement": "Plant response rating, Foxtail, Giant", "setting": "[8]; [18]", "result": 0},
      {"measurement": "Plant response rating, Foxtail, Giant", "setting": "[8]; [19]", "result": 45},
      {"measurement": "Plant response rating, Johnsongrass", "setting": "[9]; [13]", "result": 0},
      {"measurement": "Johnsongrass plant response rating (0 to 100 scale)", "setting": "[9]; [14]", "result": 0},
      {"measurement": "Plant response rating, Johnsongrass", "setting": "[9]; [20]", "result": 0},
      {"measurement": "Plant response rating, Johnsongrass", "setting": "[9]; [15]", "result": 5},
      {"measurement": "Plant response rating, Johnsongrass", "setting": "[9]; [16]", "result": 10},
      {"measurement": "Plant response rating, Johnsongrass", "setting": "[9]; [17]", "result": 0},
      {"measurement": "Plant response rating, Johnsongrass", "setting": "[9]; [18]", "result": 0},
      {"measurement": "Plant response rating, Johnsongrass", "setting": "[9]; [19]", "result": 0},
      {"measurement": "Plant response rating, Soybean", "setting": "soybean (Glycine max); [13]", "result": 80},
      {"measurement": "Soybean plant response rating (0 to 100 scale)", "setting": "soybean (Glycine max); [14]", "result": 90},
      {"measurement": "Plant response rating, Soybean", "setting": "soybean (Glycine max); [15]", "result": 98},
      {"measurement": "Plant response rating, Soybean", "setting": "soybean (Glycine max); [16]", "result": 98},
      {"measurement": "Plant response rating, Foxtail, Green", "setting": "[10]; [13]", "result": 10},
      {"measurement": "Foxtail, Green plant response rating (0 to 100 scale)", "setting": "[10]; [14]", "result": 80},
      {"measurement": "Plant response rating, Foxtail, Green", "setting": "[10]; [20]", "result": 40},
      {"measurement": "Plant response rating, Foxtail, Green", "setting": "[10]; [15]", "result": 80},
      {"measurement": "Plant response rating, Foxtail, Green", "setting": "[10]; [16]", "result": 95},
      {"measurement": "Plant response rating, Foxtail, Green", "setting": "[10]; [17]", "result": 0},
      {"measurement": "Plant response rating, Foxtail, Green", "setting": "[10]; [18]", "result": 30},
      {"measurement": "Plant response rating, Pigweed", "setting": "[11]; [13]", "result": 98},
      {"measurement": "Pigweed plant response rating (0 to 100 scale)", "setting": "[11]; [14]", "result": 98},
      {"measurement": "Plant response rating, Pigweed", "setting": "[11]; [15]", "result": 98},
      {"measurement": "Plant response rating, Pigweed", "setting": "[11]; [16]", "result": 100},
      {"measurement": "Plant response rating, Pigweed", "setting": "[11]; [17]", "result": 98},
      {"measurement": "Plant response rating, Pigweed", "setting": "[11]; [18]", "result": 98},
      {"measurement": "Plant response rating, Pigweed", "setting": "[11]; [19]", "result": 98},
      {"measurement": "Plant response rating, Nutsedge, Yellow", "setting": "[12]; [13]", "result": 60},
      {"measurement": "Nutsedge, Yellow plant response rating (0 to 100 scale)", "setting": "[12]; [14]", "result": 65},
      {"measurement": "Plant response rating, Nutsedge, Yellow", "setting": "[12]; [15]", "result": 65},
      {"measurement": "Plant response rating, Nutsedge, Yellow", "setting": "[12]; [16]", "result": 70},
      {"measurement": "Plant response rating, Nutsedge, Yellow", "setting": "[12]; [17]", "result": 0},
      {"measurement": "Plant response rating, Nutsedge, Yellow", "setting": "[12]; [18]", "result": 65},
      {"measurement": "Plant response rating, Nutsedge, Yellow", "setting": "[12]; [19]", "result": 65}
    ]}
  ]
}
